The text below walks through data of US20100298205A1, “METHODS AND COMPOSITIONS FOR THE TREATMENT OF CONDITIONS RELATED TO GASTRIC ACID SECRETION” (priority 2004, published 2010).

Tested on in one data set: not given
Assay: not given
As to conditions: pH 5; somewhat buffer dependent; Kromer et al., Ekpe et al.; cited from earlier work.
In the case of `COc1ccc2[nH]c([S+]([O-])Cc3ncc(C)c(OC)c3C)nc2c1` (stereo not drawn) [Omeprazole], the “typical half-life (stability)” value is given as “about 1 hour”.

Still in this data set, the particulars now being: pH 7; somewhat buffer dependent; Kromer et al., Ekpe et al.; cited from earlier work.
As to `COc1ccc2[nH]c([S+]([O-])Cc3ncc(C)c(OC)c3C)nc2c1` (stereo not drawn) [Omeprazole], the “typical half-life (stability)” value is “about 40 hours”.

Tested on in the next data set: not listed separately
The data set can be described thus: Pharmacokinetics in rats after oral or intravenous administration. Also noted: key to Rat T1/2 Prodrug: NC: plasma concentration of prodrug was too low to calculate half-life, or undetected; Rat T1/2 PPI: unit not given here. The class given is in vivo, rats (Sprague-Dawley). To be noted: oral, systemic half-life of intact prodrug, parenthesis = standard deviation. As to the method:
(§1) Blood concentrations of the compounds omeprazole, lansoprazole, pantoprazole, rabeprazole, and test compounds were quantified using an achiral liquid chromatography tandem mass spectrometry method (LC-MS/MS). Systemic pharmacokinetic parameters were determined for omeprazole or lansoprazole using non-compartmental analysis in Watson® version 6.3, available from InnaPhase Corporation, Philadelphia, Pa.
Consider `Cc1c(OCC(F)(F)F)ccnc1C[S+]([O-])c1nc2ccccc2n1S(=O)(=O)c1cccc(C(=O)O)c1` (stereo not drawn) [Compound 7], for which the “Rat T1/2 Prodrug” value was “NC”.

With `COc1ccc(S(=O)(=O)n2c([S+]([O-])Cc3nccc(OCC(F)(F)F)c3C)nc3ccccc32)cc1C(=O)O` (stereo not drawn) [Compound 8], the “Rat T1/2 Prodrug” value is reported as “NC”.

With `Cc1c(OCC(F)(F)F)ccnc1C[S+]([O-])c1nc2ccccc2n1S(=O)(=O)c1ccc(CC(=O)O)cc1` (stereo not drawn) [Compound 9], the “Rat T1/2 Prodrug” value is reported as “NC”.

Take `Cc1c(OCC(F)(F)F)ccnc1C[S+]([O-])c1nc2ccccc2n1S(=O)(=O)c1ccc(OCC(C)(C)C(=O)O)cc1` (stereo not drawn) [Compound 11]: the “Rat T1/2 Prodrug” value is recorded as “NC”.

For `Cc1ccc(C(=O)O)cc1S(=O)(=O)n1c([S+]([O-])Cc2nccc(OCC(F)(F)F)c2C)nc2ccccc21` (stereo not drawn) [Compound 13], the “Rat T1/2 Prodrug” value is “NC”.

Staying with this data set, now noted: oral, systemic half-life of the proton pump inhibitor, parenthesis = standard deviation.
For `Cc1c(OCC(F)(F)F)ccnc1C[S+]([O-])c1nc2ccccc2n1S(=O)(=O)c1cccc(C(=O)O)c1` (stereo not drawn) [Compound 7], the “Rat T1/2 PPI” value is listed as 1.93 (1.41).

`COc1ccc(S(=O)(=O)n2c([S+]([O-])Cc3nccc(OCC(F)(F)F)c3C)nc3ccccc32)cc1C(=O)O` (stereo not drawn) [Compound 8]: the “Rat T1/2 PPI” value was 1.80 (1.20).

For `Cc1c(OCC(F)(F)F)ccnc1C[S+]([O-])c1nc2ccccc2n1S(=O)(=O)c1ccc(CC(=O)O)cc1` (stereo not drawn) [Compound 9], the “Rat T1/2 PPI” value is listed as 0.341 (0.151).

For the molecule `Cc1c(OCC(F)(F)F)ccnc1C[S+]([O-])c1nc2ccccc2n1S(=O)(=O)c1ccc(OCC(C)(C)C(=O)O)cc1` (stereo not drawn) [Compound 11], the “Rat T1/2 PPI” value is recorded as 0.933 (1.009).

For the molecule `Cc1ccc(C(=O)O)cc1S(=O)(=O)n1c([S+]([O-])Cc2nccc(OCC(F)(F)F)c2C)nc2ccccc21` (stereo not drawn) [Compound 13], the “Rat T1/2 PPI” value is listed as 2.35 (1.22).

For `COc1ccc(C(=O)O)cc1S(=O)(=O)n1c([S+]([O-])Cc2nccc(OCC(F)(F)F)c2C)nc2ccccc21` (stereo not drawn) [Compound 14], the “Rat T1/2 PPI” value is reported as 0.536 (0.217).

The test system of a further data set is MDR1. The data set can be described thus: MDR1-MDCK bi-directional transport (Papp). The class given is in vitro ADME. To be noted: dog; MDR1-MDCK cells, B to A, 10 μM. From the text:
(§2) Determination of membrane permeability in all examples described herein was accomplished by the following procedure. This procedure is also used to determine whether a given prodrug falls within the scope of those claims given herein which relate to membrane permeability.
• Test System: Cultured Caco-2 cells and MDR1-MDCK cells • Seeding Density: 2×10^5 cells/cm^2 in Costar 12 well Transwell™plates • Culture Age: 17-21 days post seeding for Caco-2 cells, 2-3 days post seeding for MDR1-MDCK cells • Source: American Type Culture Collection, Manassas, Va. […]
The apparent permeability coefficient (Papp, cm/sec), otherwise known herein as the membrane permeability, is determined from the following relationship: […]
The transport rate J, is calculated as the slope of the linear regression fit for the transport amount over time data using Microsoft Excel® 97 SR-2 (Microsoft Corp. Redmond, Wash.),
Lucifer yellow (LY) was used as a paracellular permeability reference standard to determine integrity of cell layers used in the experiments. […] Fluorescence level in basolateral fluid sampled at 5, 20, and 60 min post dose was determined using Fluostar Galaxy (BMG Labtechnologies, Durham, N.C.) at excitation/emission wavelengths of 485/520 nm. […]
In the case of `COc1ccc2[nH]c([S+]([O-])Cc3ncc(C)c(OC)c3C)nc2c1` (stereo not drawn) [Omeprazole], the apparent permeability from basolateral to apical (Papp B→A) at 60 min, 10 μM was 17.1 ×10⁻⁶ cm/s.

The data set is the same for the next values; noted with them: dog; MDR1-MDCK cells; read-out: Ratio Papp BA/Papp AB.
With `COc1ccc2[nH]c([S+]([O-])Cc3ncc(C)c(OC)c3C)nc2c1` (stereo not drawn) [Omeprazole], the efflux ratio at 60 min, 10 µM was found to be 1.52.

The next data set has as its system Caco-2 cells. The data set can be described thus: Caco-2 membrane permeability / bi-directional transport (Papp). As to conditions: apical to basolateral, 10 μM, 37° C. The class given is in vitro ADME, human. As to the method:
as §2
(§3) DMEM was equilibrated as a transport buffer in 37° C. water bath an hour before experiment. The cells were then equilibrated in transport buffer for 1 hr at 37° C.
(§4) Dosing solution (10 μM) was prepared by adding a 20 μL aliquot of a 10 mM stock solution of the prodrug to 20 mL of transport buffer.
(§5) Transport buffer was removed from both apical and basolateral compartment of filters. […] […] Fresh transport buffer (400 μL) was added back to the basolateral compartment, and the fluid was thoroughly mixed.
(§6) Lucifer yellow (LY) was used as a paracellular permeability reference standard to determine integrity of cell layers used in the experiments. LY transport in the apical to basolateral direction was carried out in the same manner as described above. Fluorescence level in basolateral fluid sampled at 5, 20, and 60 min post dose was determined using Fluostar Galaxy (BMG Labtechnologies, Durham, N.C.) at excitation/emission wavelengths of 485/520 nm. A standard curve covering the range from 0.002 to 0.5 mg/mL is constructed to quantify the amount of LY in the transport sample to calculate permeability coefficient (Papp).
For the molecule `Cc1c(OCC(F)(F)F)ccnc1C[S+]([O-])c1nc2ccccc2n1S(=O)(=O)c1cccc(C(=O)O)c1` (stereo not drawn) [Compound 7], the Permeability turned out to be 1.6e-07 cm/s.

Molecule `COc1ccc(S(=O)(=O)n2c([S+]([O-])Cc3nccc(OCC(F)(F)F)c3C)nc3ccccc32)cc1C(=O)O` (stereo not drawn) [Compound 8] registered a Permeability of 2.3e-07 cm/s.

`Cc1c(OCC(F)(F)F)ccnc1C[S+]([O-])c1nc2ccccc2n1S(=O)(=O)c1ccc(CC(=O)O)cc1` (stereo not drawn) [Compound 9]: the Permeability was 3.4e-07 cm/s.

Tested on in another data set: not listed separately
The data set is described as above. The class given is in vitro ADME, human. To be noted: human; Caco-2 cells, A to B, 10 μM. As to the method:
as §2, §3, §4, §5, §6
Molecule `COc1ccc2[nH]c([S+]([O-])Cc3ncc(C)c(OC)c3C)nc2c1` (stereo not drawn) [Omeprazole] had a Papp A→B at 60 min, 10 μM of 12.6 ×10⁻⁶ cm/s.

Staying with this data set, now noted: human; Caco-2 cells, B to A, 10 μM.
In turn, `COc1ccc2[nH]c([S+]([O-])Cc3ncc(C)c(OC)c3C)nc2c1` (stereo not drawn) [Omeprazole] showed a Papp B→A at 60 min, 10 μM of 16.3 ×10⁻⁶ cm/s.

Still in this data set, the particulars now being: human; Caco-2 cells; read-out: Ratio Papp BA/Papp AB.
As to `COc1ccc2[nH]c([S+]([O-])Cc3ncc(C)c(OC)c3C)nc2c1` (stereo not drawn) [Omeprazole], the efflux ratio at 60 min, 10 µM was 1.29.

Tested on in a further data set: not listed separately
The data set can be described thus: Pharmacokinetics in dogs after oral or intravenous administration. Further details: key to Dog T1/2 Prodrug: NC: plasma concentration of prodrug was too low to calculate half-life, or undetected. Type of data set: in vivo, dogs (beagle). To be noted: dog; oral; systemic half-life of intact prodrug; parenthesis = standard deviation. As to the method: as §1
For `Cc1c(OCC(F)(F)F)ccnc1C[S+]([O-])c1nc2ccccc2n1S(=O)(=O)c1cccc(C(=O)O)c1` (stereo not drawn) [Compound 7], the Dog T1/2 Prodrug was 12.4 min.

As for `COc1ccc(S(=O)(=O)n2c([S+]([O-])Cc3nccc(OCC(F)(F)F)c3C)nc3ccccc32)cc1C(=O)O` (stereo not drawn) [Compound 8], the “Dog T1/2 Prodrug” value was “NC”.

With `Cc1c(OCC(F)(F)F)ccnc1C[S+]([O-])c1nc2ccccc2n1S(=O)(=O)c1ccc(CC(=O)O)cc1` (stereo not drawn) [Compound 9], the “Dog T1/2 Prodrug” value is “NC”.

In the case of `Cc1c(OCC(F)(F)F)ccnc1C[S+]([O-])c1nc2ccccc2n1S(=O)(=O)c1ccc(OCC(=O)O)cc1` (stereo not drawn) [Compound 10], the “Dog T1/2 Prodrug” value is “NC”.

Take `Cc1c(OCC(F)(F)F)ccnc1C[S+]([O-])c1nc2ccccc2n1S(=O)(=O)c1ccc(OCC(C)(C)C(=O)O)cc1` (stereo not drawn) [Compound 11]: the “Dog T1/2 Prodrug” value is given as “NC”.

For the molecule `Cc1c(OCC(F)(F)F)ccnc1C[S+]([O-])c1nc2ccccc2n1S(=O)(=O)c1ccc(CC(=O)O)c(CC(=O)O)c1` (stereo not drawn) [Compound 12], the “Dog T1/2 Prodrug” value is “NC”.

Turning to `Cc1ccc(C(=O)O)cc1S(=O)(=O)n1c([S+]([O-])Cc2nccc(OCC(F)(F)F)c2C)nc2ccccc21` (stereo not drawn) [Compound 13], the Dog T1/2 Prodrug was 7.32 min.

`COc1ccc(C(=O)O)cc1S(=O)(=O)n1c([S+]([O-])Cc2nccc(OCC(F)(F)F)c2C)nc2ccccc21` (stereo not drawn) [Compound 14]: the Dog T1/2 Prodrug is 7.08 min.

For `Cc1c(OCC(F)(F)F)ccnc1C[S+]([O-])c1nc2ccccc2n1S(=O)(=O)c1ccc(CC(=O)O)cc1C(C)C` (stereo not drawn) [Compound 15], the “Dog T1/2 Prodrug” value is “NC”.

The same data set, now with this note: dog; oral; systemic half-life of the proton pump inhibitor; parenthesis = standard deviation.
Consider `Cc1c(OCC(F)(F)F)ccnc1C[S+]([O-])c1nc2ccccc2n1S(=O)(=O)c1cccc(C(=O)O)c1` (stereo not drawn) [Compound 7], for which the Dog T1/2 PPI was 53.6 min.

As to `COc1ccc(S(=O)(=O)n2c([S+]([O-])Cc3nccc(OCC(F)(F)F)c3C)nc3ccccc32)cc1C(=O)O` (stereo not drawn) [Compound 8], the Dog T1/2 PPI was 64.8 min.

`Cc1c(OCC(F)(F)F)ccnc1C[S+]([O-])c1nc2ccccc2n1S(=O)(=O)c1ccc(CC(=O)O)cc1` (stereo not drawn) [Compound 9]: the Dog T1/2 PPI was 53.6 min.

As to `Cc1c(OCC(F)(F)F)ccnc1C[S+]([O-])c1nc2ccccc2n1S(=O)(=O)c1ccc(OCC(=O)O)cc1` (stereo not drawn) [Compound 10], the “Dog T1/2 PPI” value is on record as 0.989 (0.307).

`Cc1c(OCC(F)(F)F)ccnc1C[S+]([O-])c1nc2ccccc2n1S(=O)(=O)c1ccc(OCC(C)(C)C(=O)O)cc1` (stereo not drawn) [Compound 11]: the “Dog T1/2 PPI” value is 0.873 (0.288).

For `Cc1c(OCC(F)(F)F)ccnc1C[S+]([O-])c1nc2ccccc2n1S(=O)(=O)c1ccc(CC(=O)O)c(CC(=O)O)c1` (stereo not drawn) [Compound 12], the Dog T1/2 PPI was 55.9 min.

For the molecule `Cc1ccc(C(=O)O)cc1S(=O)(=O)n1c([S+]([O-])Cc2nccc(OCC(F)(F)F)c2C)nc2ccccc21` (stereo not drawn) [Compound 13], the Dog T1/2 PPI is 106 min.

Regarding `COc1ccc(C(=O)O)cc1S(=O)(=O)n1c([S+]([O-])Cc2nccc(OCC(F)(F)F)c2C)nc2ccccc21` (stereo not drawn) [Compound 14], the Dog T1/2 PPI was 83.4 min.

Take `Cc1c(OCC(F)(F)F)ccnc1C[S+]([O-])c1nc2ccccc2n1S(=O)(=O)c1ccc(CC(=O)O)cc1C(C)C` (stereo not drawn) [Compound 15]: the Dog T1/2 PPI is 55.4 min.

Staying with this data set, now noted: systemic half-life of PPI in dogs after oral administration.
For the molecule `Cc1c(OCC(F)(F)F)ccnc1C[S+]([O-])c1nc2ccccc2n1S(=O)(=O)c1cccc(C(=O)O)c1` (stereo not drawn) [Compound 7], the t1/2 was 53.4 min.

Consider `COc1ccc(S(=O)(=O)n2c([S+]([O-])Cc3nccc(OCC(F)(F)F)c3C)nc3ccccc32)cc1C(=O)O` (stereo not drawn) [Compound 8], for which the t1/2 is 66 min.

With `Cc1c(OCC(F)(F)F)ccnc1C[S+]([O-])c1nc2ccccc2n1S(=O)(=O)c1ccc(CC(=O)O)cc1` (stereo not drawn) [Compound 9], the t1/2 was 53.4 min.
